According to patent publication US20150056166A1, “FLAVONE DERIVATIVES AND THEIR USE” (Twincore GmbH, priority 2012, published 2015):
Entries after “also recorded” stand apart in the source; their conditions may differ.

Tests used:
[1] = UV-visible spectrophotometric titration by MgCl2; assay type: physicochemical; details: high excess of Mg(II); CH3CN/H2O (1:1 by volume)
Description: FIG. 17: (A) UV-visible spectrophotometric titration of BJ486K (newly re-prepared as XM148) by MgCl2 and (B) absorption electronic spectra of the flavone BJ486K and its magnesium(II) complex BJ486K-MgCl2. Solvent: CH3CN/H2O (1:1 by volume); T=25.0° C.; l=1 cm; [BJ486K]tot=7.63×10^−5 M; (1) [MgCl2]tot/[BJ486K]tot=0; (2) [MgCl2]tot/[BJ486K]tot=185.8. To ensure solubilisation of both the flavone BJ486K (newly re-prepared as XM148) and MgCl2, a mixed solvent made of 50% of water and 50% of CH3CN was used. A stock solution of XM148 ([…] in 10 mL of argon saturated CH3CN, [XM148]tot=9.54×10^−3 M) was prepared. 160 μL of the flavone stock solution in CH3CN was diluted in 1 mL and 840 μL of Ar-saturated water and CH3CN, respectively. The absorption spectrophotometric titration (200-800 nm) was carried out by successive addition of aliquots (10 μL) of a stock solution of MgCl2 freshly prepared in water (337.6 mg in 5 mL, [MgCl2]tot=7.09×10^−3 M). […]
FIG. 18: (A) UV-visible spectrophotometric titration of XM131 (final precursor B, Scheme 2) by MgCl2. […] Absorption spectra (200-800 nm) was recorded after each addition of aliquots (10 μL) of a stock solution of MgCl2 freshly prepared in water (337.6 mg in 5 mL, [MgCl2]tot=7.09×10^−3 M). […]

[2] = system: Luc-Jc1/E2/G451R reporter viruses; test: Resistance test, Luc-Jc1 versus Luc-Jc1/E2/G451R reporter virus; assay type: cell-based, HCV; details: Huh7-Lunet/CD81 cells, luciferase 72 h
Description: FIG. 4: BJ486K is not affected by viral resistance towards a SR-BI-targeting compound, inhibits HCV of different genotypes and prevents infection of primary human hepatocytes Huh7-Lunet/CD81 cells were inoculated with Luc-Jc1 or Luc-Jc1/E2/G451R reporter viruses in the presence of increasing doses of (A) ITX 5061 or (B) BJ486K. Cells were lysed 72 h later. Luciferase activity was determined and is expressed relative to control infections conducted in the presence of DMSO. Mean values of four independent experiments each with quadruplicate measurements including the standard deviation are shown. (C) Huh7-Lunet/CD81 cells were inoculated with genotype 1a, 1b, 2b, 3a, 4a, 5a and 6a chimeric reporter viruses in the presence of increasing doses of BJ486K. Luciferase activity was determined 72 h later and is expressed relative to infections in the presence of DMSO. Mean values of three independent experiments, each with triplicate measurements, are given. (D) Primary human hepatocytes were inoculated with Con1/C3 in the presence of DMSO or increasing concentrations of BJ486K. The inhibition of HCV infection was assessed by focus-formation assay and is expressed as % inhibition relative to DMSO-treated cells. Mean values of duplicate measurements including the error range are given. […]

JcR-2a virus particles = test: Antiviral activity against early steps of HCV cell entry, synchronized JcR-2a infection (FIG. 3); assay type: cell-based; details: heparin 50 μg/ml, JS-81 2 μg/ml; inhibitor present 4 h
Description: FIG. 3: BJ486K inhibits cell entry post virus attachment. The design of the JcR-2a reporter virus construct is given at the top. Huh7-Lunet/CD81 cells were inoculated with concentrated JcR-2a particles at 4° C. for 60 minutes. Subsequently, unbound virus particles were washed away and cells were shifted to 37° C. to permit synchronized cell entry. According to the 8 experimental protocols depicted in the middle, various cell entry inhibitors including heparin (50 μg/ml), ITX5061 (10 μM), CD81-specific antibody JS-81 (2 μg/ml) and BJ486K (20 μM) were either present during inoculation (protocol 1) or were added at different time points after inoculation (protocols 2 to 8). In each case, inhibitor was present for 4 h (dashed line) and was then washed away. Efficiency of cell entry was determined 48 h post inoculation by determination of luciferase activity and is expressed relative to control infections conducted in the presence of solvent alone (DMSO). Mean values of three independent experiments each with quadruplicate measurements including the standard deviation are shown.
JcR-2a virus particles were incubated with Huh7-Lunet/CD81 cells seeded as described above for 1 h at 4° C. to synchronize cell entry. Various inhibitors including 50 μg/ml heparin (Sigma-Aldrich), CD81-specific antibody JS-81 (2 μg/ml; Becton Dickinson), ITX 5061 (10 μM) or BJ486K (20 μM), were added during virus inoculation (protocol 1) or at indicated time points after virus inoculation (protocol 2-8). After 4 h inhibitor treatment, medium was changed to fresh culture fluid without inhibitors and the cells were lysed 48 h after inoculation as described above. Efficiency of infection was determined by luciferase assay using a tube luminometer (Lumat LB9507, Berthold, Freiburg, Germany).
To resolve which step of HCV cell entry is inhibited by BJ486K, we assessed its antiviral activity when administered at different time points during the early phase of infection. To this end, Huh7-Lunet/CD81 cells were inoculated for one hour at 4° C. with a reporter virus prepared in the absence of drugs. […]

Jc1 = test: HCV virus assembly/release, intra- and extracellular core protein after Jc1 RNA transfection; assay type: cell-based; details: 48 h after transfection, drugs added 4 h after transfection
Description: (A) Huh7-Lunet/CD81 cells were transfected with the subgenomic luciferase replicon depicted at the top. Drugs were added 4 h post transfection and the level of HCV RNA translation and RNA replication was quantified by luciferase assays 72 h post transfection. Mean values of three independent experiments each with quadruplicate measurements including the standard deviation are shown. (B) Cells were transfected with the Jc1 chimera depicted above and drugs were added 4 h later. HCV virus release in the presence or absence of given compounds was determined by quantification of intracellular and extracellular core protein levels using a core-specific ELISA. Mean values of three independent experiments with single measurements including the error range are given. (C) Huh7-Lunet/CD81 cells were inoculated with Luc-Jc1 reporter viruses prepared in the absence of drugs. BJ486K was added to the cells only prior to inoculation (black), only during inoculation (grey) or selectively directly after inoculation (white) as schematically depicted at the top. Infectivity was determined 72 h later by luciferase assays and compared to DMSO-treated controls. Mean values of three independent experiments each with quadruplicate measurements including the standard deviation are shown.
Huh7-Lunet/CD81 cells were transfected with Jc1 RNA and seeded on a 6-well plate. Compounds were added 4 h later. At 48 h after transfection, cell culture supernatant was harvested and used for measuring the extracellular core amount. Cells were washed once with PBS, scraped and centrifuged for 5 min at 1000×g. Cell pellets were resuspended in 500 μl fresh culture fluid and subjected to three cycles of freeze and thaw using liquid nitrogen and a 37° C. thermo block. Samples were than centrifuged at 10,000×g for 10 min to remove cell debris and the core amount was measured (intracellular core protein) using the […] […]
To determine whether BJ486K affects virus assembly or release we transfected Huh7-Lunet/CD81 cells with Jc1 RNA and quantified intra- and extracellular levels of core protein 48 h after transfection (FIG. 2B).

JcR-2a virus = test: Chloroquine alone and with BJ486K, JcR-2a virus in Huh7.5 F-Luc cells; assay type: cell-based, HCV; details: chloroquine alone
Description: Result from one experiment with triplicate measurements is given. (B) Combined effects of CQ on BJ486K activity (and vice versa) were analyzed by inoculation of Huh7.5 F-Luc cells with JcR-2a virus in the presence of given drugs and determination of luciferase activity 72 h later. Results from 3 independent experiments are given.

Huh7.5 F-Luc cells = test: Cytotoxicity of chloroquine (FIG. 11A); details: at the used concentrations

COc1ccc(-c2cc(=O)c3c(OC)c(O)c(OC)cc3o2)cc1 [XM131, 6-Hydroxy-5,7-dimethoxy-2-(4-methoxy-phenyl)-chromen-4-one]
Mg(II) complexation [1]: no absorption variation can be observed; also recorded: no Mg(II) complex is observed

COc1c(NC(=O)C(=O)c2ccc(OCCN3CCOCC3)c3ccccc23)cc(C(C)(C)C)cc1NS(C)(=O)=O [ITX5061, reference compound]
antiviral activity against G451R mutant compared with wild type [2]: resistant

heparin [reference compound]
inhibition of HCV entry by time of addition, in words (JcR-2a virus particles): only interfered with HCV infection when present already during inoculation

C=C[C@H]1C[N@@]2CC[C@H]1C[C@@H]2[C@@H](O)c1ccnc2ccc(OC)cc12 [quinidine]
reduction of extracellular levels of core protein (Jc1): more than 100 fold

CCN(CC)CCCC(C)Nc1ccnc2cc(Cl)ccc12 (stereo not drawn) [Chloroquine, chloroquine]
anti-HCV effect (JcR-2a virus): dose-dependent anti-HCV effect | anti-HCV effect (JcR-2a virus; listed as chloroquine): dose-dependent inhibition of HCV | cytotoxicity (Huh7.5 F-Luc cells): no cytotoxicity detectable | cytotoxicity (Huh7.5 F-Luc cells; listed as chloroquine): no cytotoxicity

O=C1C[C@@H](c2ccc(O)cc2)Oc2cc(O)cc(O)c21 [naringenin]
reduction of extracellular levels of core protein (Jc1): ca. 5 fold
